Several values for one entry are separate records, joined by “and”; a condition that tells them apart may be missing. Equal entries are not always repeated. Where two headings read alike, the source gives them in different places.
How the values were obtained:
CDK12–cyclin K and DDB1 = molecular target: T1, CDK12–cyclin K and DDB1 (Homo sapiens, UniProt Q16531+Q9NYV4, K965R); assay: TR-FRET ternary complex formation assay (compound titration); type: binding; conditions: for TR-FRET signal at compound concentration: replicate titrations
T1 construct: His6–CDK12 (a.a. 713–1,052); full-length or beta-propeller B domain deletion (ΔBPB: a.a. 396–705 deleted) constructs of His6–DDB1ΔBPB, StrepII–Avi–DDB1, or His6–Spy–DDB1; made in house; host or cells: Trichoplusia ni High Five insect cells (baculovirus)
Outline: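 Background fluorescence is reduced by reading 70 μs after excitation, and complex formation is followed as the 520:490 nm fluorescence ratio.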

[1] = system: cyclin K–eGFP degradation reporter; assay: Cyclin K reporter stability analysis (dual-color cyclin K–eGFP reporter); type: cell-based, human; conditions: for reporter assay signal (normalized): replicates
Outline: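 A 5 h treatment of HEK293T–Cas9 cells expressing the degradation reporter preceded flow cytometry; eGFP over mCherry, normalized to DMSO.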

[2] = compound concentration 244.8 nM
[3] = compound concentration 993.601 nM
[4] = compound concentration 2001.6 nM

T1 sequence (Q9NYV4 713-1052 K965R): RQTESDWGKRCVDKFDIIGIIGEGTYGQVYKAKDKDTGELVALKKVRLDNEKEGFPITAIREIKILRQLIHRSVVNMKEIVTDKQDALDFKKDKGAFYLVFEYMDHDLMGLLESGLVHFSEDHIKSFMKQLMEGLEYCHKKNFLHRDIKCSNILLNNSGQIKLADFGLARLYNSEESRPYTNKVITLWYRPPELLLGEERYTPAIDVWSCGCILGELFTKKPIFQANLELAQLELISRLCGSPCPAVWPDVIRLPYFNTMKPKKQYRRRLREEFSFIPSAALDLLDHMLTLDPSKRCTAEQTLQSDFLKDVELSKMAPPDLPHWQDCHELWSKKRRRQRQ
T1 sequence (O75909 1-267 partner): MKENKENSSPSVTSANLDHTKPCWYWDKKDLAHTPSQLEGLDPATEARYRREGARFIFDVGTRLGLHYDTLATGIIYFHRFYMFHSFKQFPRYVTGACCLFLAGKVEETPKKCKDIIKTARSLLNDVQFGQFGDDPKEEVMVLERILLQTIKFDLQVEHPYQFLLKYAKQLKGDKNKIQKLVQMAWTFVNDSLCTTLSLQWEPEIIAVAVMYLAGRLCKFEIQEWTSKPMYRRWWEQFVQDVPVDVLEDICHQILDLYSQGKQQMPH
T1 sequence (Q16531 whole entry): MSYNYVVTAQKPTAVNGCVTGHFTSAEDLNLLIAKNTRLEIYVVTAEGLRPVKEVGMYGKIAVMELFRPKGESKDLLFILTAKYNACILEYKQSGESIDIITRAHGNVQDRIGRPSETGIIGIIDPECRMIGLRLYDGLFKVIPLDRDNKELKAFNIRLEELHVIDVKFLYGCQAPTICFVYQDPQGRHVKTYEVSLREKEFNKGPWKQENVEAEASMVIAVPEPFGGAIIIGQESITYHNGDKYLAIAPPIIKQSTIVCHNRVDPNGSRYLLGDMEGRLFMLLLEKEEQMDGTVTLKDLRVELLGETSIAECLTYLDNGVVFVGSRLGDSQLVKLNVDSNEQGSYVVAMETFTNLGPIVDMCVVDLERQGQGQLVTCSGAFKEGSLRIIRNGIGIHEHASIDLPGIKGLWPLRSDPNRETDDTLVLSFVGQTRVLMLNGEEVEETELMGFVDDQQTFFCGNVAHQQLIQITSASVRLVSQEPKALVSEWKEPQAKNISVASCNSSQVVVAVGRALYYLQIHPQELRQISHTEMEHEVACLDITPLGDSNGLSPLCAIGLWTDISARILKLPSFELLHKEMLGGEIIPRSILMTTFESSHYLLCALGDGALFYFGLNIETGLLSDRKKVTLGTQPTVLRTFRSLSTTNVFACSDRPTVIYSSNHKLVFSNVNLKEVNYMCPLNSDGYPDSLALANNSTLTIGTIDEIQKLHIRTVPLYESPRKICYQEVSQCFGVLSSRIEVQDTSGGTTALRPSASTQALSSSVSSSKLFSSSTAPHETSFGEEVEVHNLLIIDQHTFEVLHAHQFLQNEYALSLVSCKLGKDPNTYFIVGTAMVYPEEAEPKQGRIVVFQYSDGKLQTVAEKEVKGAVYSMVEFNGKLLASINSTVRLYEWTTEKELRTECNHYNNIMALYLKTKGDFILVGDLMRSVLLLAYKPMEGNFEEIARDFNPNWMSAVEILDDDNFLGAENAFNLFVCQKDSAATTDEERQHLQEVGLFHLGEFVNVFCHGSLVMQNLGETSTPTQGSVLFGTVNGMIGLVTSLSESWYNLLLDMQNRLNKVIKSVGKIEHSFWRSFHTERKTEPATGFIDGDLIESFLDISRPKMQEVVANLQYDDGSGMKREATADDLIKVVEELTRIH

DC50 ([1]; Supplementary Fig. 4, HEK293T cycKeGFP reporter, 5h, n=2, read-out: DC50 printed on reporter plot): 15 nM
DC50 ([1]; source data sheet correlations, read-out: DC50): 24 nM
SMILES: CCC(CO)Nc1nc(NCc2ccc(-c3ccccn3)cc2)c2ncn(C(C)C)c2n1 (centres unmarked) [CR8, reference compound]
TR-FRET signal, individual replicate (CDK12–cyclin K and DDB1; [2]): 4.223 and 4.06 and 4.046 and 4.132 and 4.096 and 3.922 and 3.897 and 4.118
TR-FRET signal at compound concentration 244.8 nM (CDK12–cyclin K and DDB1; compound concentration 244.8 nM, raw replicate titration data): 4.223 and 4.06 and 4.046 and 4.132 and 4.096 and 3.922 and 3.897 and 4.118 and 4.095 and 3.806 and 3.805 and 3.852 and 3.955 and 3.967 and 4.129 and 4.013 and 4.0726 and 3.918
TR-FRET signal at compound concentration 244.8 nM (CDK12–cyclin K and DDB1; compound concentration 244.8 nM, raw titration data): 4.223 and 4.06 and 4.046 and 4.132 and 4.096 and 3.922 and 3.897 and 4.118 and 4.095 and 3.806 and 3.805 and 3.852 and 3.955 and 3.967 and 4.129 and 4.013 and 4.0726 and 3.918
TR-FRET signal at compound concentration (CDK12–cyclin K and DDB1; [2]): 4.223 and 4.06 and 4.046 and 4.132 and 4.096 and 3.922 and 3.897 and 4.118
TR-FRET signal, individual replicate (CDK12–cyclin K and DDB1; [3]): 4.301 and 4.232 and 4.095 and 4.244 and 4.268 and 3.98 and 3.937 and 4.179
TR-FRET signal at compound concentration 993.601 nM (CDK12–cyclin K and DDB1; compound concentration 993.601 nM, raw replicate titration data): 4.301 and 4.232 and 4.095 and 4.244 and 4.268 and 3.98 and 3.937 and 4.179 and 4.188 and 3.896 and 3.831 and 3.928 and 4.083 and 4.021 and 4.231 and 4.144 and 3.981
TR-FRET signal at compound concentration 993.601 nM (CDK12–cyclin K and DDB1; compound concentration 993.601 nM, raw titration data): 4.301 and 4.232 and 4.095 and 4.244 and 4.268 and 3.98 and 3.937 and 4.179 and 4.188 and 3.896 and 3.831 and 3.928 and 4.083 and 4.021 and 4.231 and 4.144 and 3.981
TR-FRET signal at compound concentration (CDK12–cyclin K and DDB1; [3]): 4.301 and 4.232 and 4.095 and 4.244 and 4.268 and 3.98 and 3.937 and 4.179
TR-FRET signal, individual replicate (CDK12–cyclin K and DDB1; [4]): 4.322 and 4.194 and 4.162 and 4.144 and 4.309 and 4.034 and 4.299
TR-FRET signal at compound concentration 2001.6 nM (CDK12–cyclin K and DDB1; compound concentration 2001.6 nM, raw replicate titration data): 4.322 and 4.194 and 4.162 and 4.144 and 4.309 and 4.034 and 4.299 and 4.197 and 3.982 and 3.892 and 3.93 and 4.094 and 4.059 and 4.292 and 4.196 and 4.177 and 4.087
TR-FRET signal at compound concentration 2001.6 nM (CDK12–cyclin K and DDB1; compound concentration 2001.6 nM, raw titration data): 4.322 and 4.194 and 4.162 and 4.144 and 4.309 and 4.034 and 4.299 and 4.197 and 3.982 and 3.892 and 3.93 and 4.094 and 4.059 and 4.292 and 4.196 and 4.177 and 4.087
TR-FRET signal at compound concentration (CDK12–cyclin K and DDB1; [4]): 4.322 and 4.194 and 4.162 and 4.144 and 4.309 and 4.034 and 4.299
reporter assay signal (normalized) ([1]; 2 nM): 0.8972 and 0.9042
reporter assay signal (normalized) ([1]; 3 nM): 0.9215 and 0.8933
reporter assay signal (normalized) ([1]; 4.5 nM): 0.9042 and 0.8823
reporter assay signal (normalized) ([1]; 7.68 nM): 0.8744 and 0.8637
reporter assay signal (normalized) ([1]; 22.8 nM): 0.7879 and 0.7853
reporter assay signal (normalized) ([1]; 34.2 nM): 0.7383 and 0.7347
reporter assay signal (normalized) ([1]; 51.3 nM): 0.6912 and 0.706
reporter assay signal (normalized) ([1]; 77 nM): 0.6707 and 0.6773
reporter assay signal (normalized) ([1]; 260 nM): 0.5992 and 0.6647
reporter assay signal (normalized) ([1]; 390 nM): 0.6455 and 0.6368
reporter assay signal (normalized) ([1]; 585 nM): 0.6031 and 0.6411
reporter assay signal (normalized) ([1]; 877 nM): 0.5764 and 0.6073
reporter assay signal (normalized) ([1]; 1970 nM): 0.6031 and 0.6571
reporter assay signal (normalized) ([1]; 2960 nM): 0.6526 and 0.6453
reporter assay signal (normalized) ([1]; 4440 nM): 0.6125 and 0.6655
reporter assay signal (normalized) ([1]; 6670 nM): 0.6345 and 0.6267
reporter assay signal (normalized) ([1]; 10000 nM): 0.6031 and 0.6495
cyclin K reporter degradation, result in words ([1]; HEK293T): potent degraders
